Where two headings read alike, the source gives them in different places.
Key:
Type in all cases: cell-based, Escherichia coli
ΔtolC-Pore = assay: microbe, parasite or virus in culture; settings: for Minimum inhibitory concentration (MIC), Pore ΔtolC: Table 10, with pore
Method in brief: (§1)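 E. coli strains carrying a genomically integrated constitutive fhuA ΔC/Δ4L pore were grown 18 h in LB at 37 °C, then diluted 1/2000 in MHB II from OD600 ~1.0. Compounds were tested in duplicate, 2-fold serial titration, for 18 h at 37 °C with shaking. MIC came from OD600 with the pre-incubation background subtracted.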

wild-type (WT) K-12-Pore = assay: microbe, parasite or virus in culture; settings: technical duplicate; for MIC: Escherichia coli
Method in brief: as §1

EKO-35-Pore = assay: MIC susceptibility profiling, porinated strain; settings: for Fold changes of MICs: EKO-35-Pore compared to EKO-35-Pore (reference); for MIC: Escherichia coli
Method in brief: as §1

EKO-35 araC::acrD Pore = assay: MIC susceptibility profiling, porinated efflux platform; settings: for Fold changes of MICs: EKO-35 araC::acrD Pore compared to EKO-35-Pore
Method in brief: as §1

EKO-35 araC::emrAB Pore = assay: as above; settings: for Fold changes of MICs: EKO-35 araC::emrAB Pore compared to EKO-35-Pore
Method in brief: as §1

[1] = system: EKO-35 araC::acrBD408A Pore; assay: as above; settings: for Fold changes of MICs: EKO-35 araC::acrBD408A Pore compared to EKO-35-Pore
Method in brief: as §1

EKO-35 araC::acrEF Pore = assay: as above; settings: for Fold changes of MICs: EKO-35 araC::acrEF Pore compared to EKO-35-Pore
Method in brief: as §1

EKO-35 araC::acrB Pore = assay: as above; settings: for Fold changes of MICs: EKO-35 araC::acr-B Pore compared to EKO-35-Pore
Method in brief: as §1

EKO-35 araC::acrD = assay: MIC susceptibility profiling, efflux platform; settings: for Fold change of MICs: EKO-35 araC::acrD compared to EKO-35
Method in brief: (§2)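 Turbidity (OD600, pre-incubation subtracted) defined growth after 18 h at 37 °C in MHB II. The inoculum was diluted 1/2000 from an OD600 ~1.0 PBS suspension of an overnight LB culture. Compounds were run as duplicate twofold dilutions.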

EKO-35 araC::acrEF = assay: MIC susceptibility profiling, efflux platform; settings: for Fold change of MICs: EKO-35 araC::acrEF compared to EKO-35
Method in brief: as §2

[2] = system: EKO-35 araC::mexCD (MexCD from P. aeruginosa); assay: MIC susceptibility profiling, efflux platform; settings: for Fold change of MICs: EKO-35 araC::mexCD compared to EKO-35
Method in brief: as §2

EKO-35 araC::mdtBC = assay: MIC susceptibility profiling, efflux platform; settings: for Fold change of MICs: EKO-35 araC::mdtBC compared to EKO-35
Method in brief: as §2

EKO-35 araC::acrB = assay: MIC susceptibility profiling, efflux platform; settings: for Fold change of MICs: EKO-35 araC::acrB compared to EKO-35
Method in brief: as §2

EKO-35 araC::macAB = assay: MIC susceptibility profiling, efflux platform; settings: for Fold change of MICs: EKO-35 araC::macAB compared to EKO-35
Method in brief: as §2

EKO-35 araC::mdtEF = assay: MIC susceptibility profiling, efflux platform; settings: for Fold change of MICs: EKO-35 araC::mdtEF compared to EKO-35
Method in brief: as §2

EKO-35 araC::emrKY = assay: MIC susceptibility profiling, efflux platform; settings: for Fold change of MICs: EKO-35 araC::emrKY compared to EKO-35
Method in brief: as §2

EKO-35 araC::emrAB = assay: MIC susceptibility profiling, efflux platform; settings: for Fold change of MICs: EKO-35 araC::emrAB compared to EKO-35
Method in brief: as §2

EKO-35 araC::acrBD408A = assay: MIC susceptibility profiling, efflux platform; settings: for Fold change of MICs: EKO-35 araC::acrBD408A compared to EKO-35
Method in brief: as §2

[3] = Table 14A, porinated, technical duplicate
[4] = Table 13A, non-porinated, technical duplicate
[5] = Table 13B, non-porinated, technical duplicate

C[C@H](CCC(=O)NCCS(=O)(=O)[O-])[C@H]1CC[C@H]2[C@@H]3CC[C@@H]4C[C@H](O)CC[C@]4(C)[C@H]3C[C@H](O)[C@]12C.[Na+] [sodium taurodeoxycholate]
Minimum inhibitory concentration (MIC), Pore ΔtolC (ΔtolC-Pore; technical duplicate): 250 µg/mL | Minimum inhibitory concentration, ΔtolC-Pore (ΔtolC-Pore; [3]): 250 µg/mL | Minimum inhibitory concentration (MIC), Pore K-12 (wild-type (WT) K-12-Pore; Table 10, with pore): 1000 µg/mL | Minimum inhibitory concentration, K-12 (WT)-Pore (wild-type (WT) K-12-Pore; Table 14A, porinated): 1000 µg/mL | Fold changes of MICs (EKO-35-Pore): 1 fold | Minimum inhibitory concentration (MIC), Pore EKO-35 (EKO-35-Pore; Table 10, with pore, technical duplicate): 250 µg/mL | Minimum inhibitory concentration, EKO-35-Pore (EKO-35-Pore; [3]): 250 µg/mL | Fold changes of MICs (EKO-35 araC::acrD Pore): 4 fold | Minimum inhibitory concentration, EKO-35 araC::acrD Pore (EKO-35 araC::acrD Pore; [3]): 1000 µg/mL | Fold changes of MICs (EKO-35 araC::emrAB Pore): 2 fold | Minimum inhibitory concentration (EKO-35 araC::emrAB Pore; EKO-35 araC::emrAB Pore, technical duplicate): 500 µg/mL | Fold changes of MICs [1]: 1 fold | Minimum inhibitory concentration ([1]; EKO-35 araC::acrBD408A Pore, technical duplicate): 250 µg/mL | efflux pump-mediated resistance vs EKO-35-Pore (EKO-35 araC::acrEF Pore; AcrEF with the pore): increased resistance | Fold changes of MICs (EKO-35 araC::acrEF Pore): 4 fold | Minimum inhibitory concentration, EKO-35 araC::acrEF Pore (EKO-35 araC::acrEF Pore; [3]): 1000 µg/mL | efflux pump-mediated resistance vs EKO-35-Pore (EKO-35 araC::acrB Pore; AcrB with the pore): increased resistance | Fold changes of MICs (EKO-35 araC::acrB Pore): 4 fold | Minimum inhibitory concentration, EKO-35 araC::acrB Pore (EKO-35 araC::acrB Pore; [3]): 1000 µg/mL | Fold change of MICs (EKO-35 araC::acrD): 2 fold | Minimum Inhibitory Concentration, EKO-35 araC::acrD (EKO-35 araC::acrD; [4]): 1000 µg/mL | Fold change of MICs (EKO-35 araC::acrEF): 2 fold | Minimum Inhibitory Concentration, EKO-35 araC::acrEF (EKO-35 araC::acrEF; [4]): 1000 µg/mL | Fold change of MICs [2]: 2 fold | Minimum Inhibitory Concentration, EKO-35 araC::mexCD [2, 5]: 1000 µg/mL | Fold change of MICs (EKO-35 araC::mdtBC): 2 fold | Minimum Inhibitory Concentration, EKO-35 araC::mdtBC (EKO-35 araC::mdtBC; [5]): 1000 µg/mL | Fold change of MICs (EKO-35 araC::acrB): 2 fold | Minimum Inhibitory Concentration, EKO-35 araC::acrB (EKO-35 araC::acrB; [4]): 1000 µg/mL | Fold change of MICs (EKO-35 araC::macAB): 1 fold | Minimum Inhibitory Concentration, EKO-35 araC::macAB (EKO-35 araC::macAB; [5]): 250 µg/mL | Fold change of MICs (EKO-35 araC::mdtEF): 2 fold | Minimum Inhibitory Concentration, EKO-35 araC::mdtEF (EKO-35 araC::mdtEF; [4]): 1000 µg/mL | Fold change of MICs (EKO-35 araC::emrKY): 1 fold | Minimum Inhibitory Concentration, EKO-35 araC::emrKY (EKO-35 araC::emrKY; [5]): 500 µg/mL | Fold change of MICs (EKO-35 araC::emrAB): 2 fold | Minimum Inhibitory Concentration, EKO-35 araC::emrAB (EKO-35 araC::emrAB; [5]): 1000 µg/mL | Fold change of MICs (EKO-35 araC::acrBD408A): 2 fold | Minimum Inhibitory Concentration, EKO-35 araC::acrBD408A (EKO-35 araC::acrBD408A; [5]): 1000 µg/mL

COc1ccc(C[C@H](N)C(=O)N[C@H]2[C@@H](O)[C@H](n3cnc4c(N(C)C)ncnc43)O[C@@H]2CO)cc1 [puromycin]
MIC (ΔtolC-Pore; Escherichia coli, 18 h, read-out: Minimum inhibitory concentration, ΔtolC-Pore): 1.56 µg/mL | Minimum inhibitory concentration (MIC), Pore ΔtolC (ΔtolC-Pore; technical duplicate): 1.563 µg/mL | MIC (wild-type (WT) K-12-Pore; Table 10, with pore, read-out: Minimum inhibitory concentration (MIC), Pore K-12): 50 µg/mL | MIC (wild-type (WT) K-12-Pore; Table 14A, porinated, read-out: Minimum inhibitory concentration, K-12 (WT)-Pore): 50 µg/mL | Fold changes of MICs (EKO-35-Pore): 1 fold | MIC (EKO-35-Pore; Table 10, with pore, technical duplicate, read-out: Minimum inhibitory concentration (MIC), Pore EKO-35): 0.781 µg/mL | MIC (EKO-35-Pore; Table 14A, porinated, technical duplicate, read-out: Minimum inhibitory concentration, EKO-35-Pore): 0.781 µg/mL | Fold changes of MICs (EKO-35 araC::acrD Pore): 1 fold | MIC (EKO-35 araC::acrD Pore; Escherichia coli, Table 14A, porinated, technical duplicate, read-out: Minimum inhibitory concentration, EKO-35 araC::acrD Pore): 0.781 µg/mL | Fold changes of MICs (EKO-35 araC::emrAB Pore): 1 fold | MIC (EKO-35 araC::emrAB Pore; Escherichia coli, EKO-35 araC::emrAB Pore, technical duplicate, read-out: Minimum inhibitory concentration): 0.781 µg/mL | Fold changes of MICs [1]: 1 fold | MIC ([1]; Escherichia coli, EKO-35 araC::acrBD408A Pore, technical duplicate, read-out: Minimum inhibitory concentration): 0.781 µg/mL | Fold changes of MICs (EKO-35 araC::acrEF Pore): 4 fold | MIC (EKO-35 araC::acrEF Pore; Escherichia coli, Table 14A, porinated, technical duplicate, read-out: Minimum inhibitory concentration, EKO-35 araC::acrEF Pore): 3.12 µg/mL | Fold changes of MICs (EKO-35 araC::acrB Pore): 64 fold | Fold change of MICs (EKO-35 araC::acrD): 1 fold | MIC (EKO-35 araC::acrD; Escherichia coli, Table 13A, non-porinated, technical duplicate, read-out: Minimum Inhibitory Concentration, EKO-35 araC::acrD): 1.56 µg/mL | Fold change of MICs (EKO-35 araC::acrEF): 4 fold | MIC (EKO-35 araC::acrEF; Escherichia coli, Table 13A, non-porinated, technical duplicate, read-out: Minimum Inhibitory Concentration, EKO-35 araC::acrEF): 6.25 µg/mL | Fold change of MICs [2]: 4 fold | MIC ([2]; Table 13B, non-porinated, technical duplicate, read-out: Minimum Inhibitory Concentration, EKO-35 araC::mexCD): 6.25 µg/mL | Fold change of MICs (EKO-35 araC::mdtBC): 1 fold | MIC (EKO-35 araC::mdtBC; Escherichia coli, Table 13B, non-porinated, technical duplicate, read-out: Minimum Inhibitory Concentration, EKO-35 araC::mdtBC): 1.56 µg/mL | Fold change of MICs (EKO-35 araC::acrB): 64 fold | MIC (EKO-35 araC::acrB; Escherichia coli, Table 13A, non-porinated, technical duplicate, read-out: Minimum Inhibitory Concentration, EKO-35 araC::acrB): 100 µg/mL | Fold change of MICs (EKO-35 araC::macAB): 1 fold | MIC (EKO-35 araC::macAB; Escherichia coli, Table 13B, non-porinated, technical duplicate, read-out: Minimum Inhibitory Concentration, EKO-35 araC::macAB): 1.56 µg/mL | Fold change of MICs (EKO-35 araC::mdtEF): 1 fold | MIC (EKO-35 araC::mdtEF; Escherichia coli, Table 13A, non-porinated, technical duplicate, read-out: Minimum Inhibitory Concentration, EKO-35 araC::mdtEF): 1.56 µg/mL | Fold change of MICs (EKO-35 araC::emrKY): 1 fold | MIC (EKO-35 araC::emrKY; Escherichia coli, Table 13B, non-porinated, technical duplicate, read-out: Minimum Inhibitory Concentration, EKO-35 araC::emrKY): 1.56 µg/mL | Fold change of MICs (EKO-35 araC::emrAB): 1 fold | MIC (EKO-35 araC::emrAB; Escherichia coli, Table 13B, non-porinated, technical duplicate, read-out: Minimum Inhibitory Concentration, EKO-35 araC::emrAB): 1.56 µg/mL | Fold change of MICs (EKO-35 araC::acrBD408A): 1 fold | MIC (EKO-35 araC::acrBD408A; Escherichia coli, Table 13B, non-porinated, technical duplicate, read-out: Minimum Inhibitory Concentration, EKO-35 araC::acrBD408A): 1.56 µg/mL

Source: patent US20230407243A1, “GENETIC PLATFORM TO INVESTIGATE THE FUNCTIONS OF BACTERIAL DRUG EFFLUX PUMPS” (priority 2022, published 2023)
